Laboratory results published in ChEMBL document CHEMBL1909046, “DrugMatrix in vitro pharmacology data”.

Legend:
[1] = molecular target: T1, Vasoactive intestinal polypeptide receptor 1 (Homo sapiens, UniProt P32241); type: cell membranes, Membrane; conditions: ht-29; note: in other assays of this panel Not Active means under 50% inhibition at 10 µM
T1 sequence (P32241 whole entry): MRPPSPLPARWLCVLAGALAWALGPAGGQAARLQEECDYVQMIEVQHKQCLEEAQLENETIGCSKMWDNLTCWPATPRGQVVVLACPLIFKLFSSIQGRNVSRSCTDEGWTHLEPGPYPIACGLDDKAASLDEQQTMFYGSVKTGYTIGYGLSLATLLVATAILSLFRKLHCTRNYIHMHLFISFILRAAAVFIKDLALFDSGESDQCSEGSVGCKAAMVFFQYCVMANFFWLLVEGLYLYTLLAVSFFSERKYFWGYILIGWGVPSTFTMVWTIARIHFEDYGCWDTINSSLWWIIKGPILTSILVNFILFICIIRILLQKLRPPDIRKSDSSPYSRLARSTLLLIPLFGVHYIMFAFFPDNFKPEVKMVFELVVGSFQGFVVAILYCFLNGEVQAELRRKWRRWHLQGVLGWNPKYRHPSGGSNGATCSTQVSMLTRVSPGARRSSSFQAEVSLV

[2] = DRUGMATRIX: Sigma2 radioligand binding (ligand: [3H] Ifenprodil); type: cell membranes, Rattus norvegicus, Wistar, Brain, Membrane; conditions: Not Active = under 50% inhibition at 10 µM
[3] = DRUGMATRIX: Glutamate, Kainate radioligand binding (ligand: [3H] Kainic acid); type: cell membranes, Rattus norvegicus, Wistar, Brain, Membrane; conditions: Not Active = under 50% inhibition at 10 µM
[4] = DRUGMATRIX: GABAA, Chloride Channel, TBOB radioligand binding (ligand: [3H] TBOB); type: cell membranes, Rattus norvegicus, Wistar, Cerebral cortex, Membrane; conditions: Not Active = under 50% inhibition at 10 µM
[5] = DRUGMATRIX: Serotonin (5-Hydroxytryptamine) 5-HT3 radioligand binding (ligand: [3H] GR-65630); type: cell membranes, Membrane; conditions: hek293; Not Active = under 50% inhibition at 10 µM
Adenosine receptor A1 = molecular target: T2, Adenosine receptor A1 (Homo sapiens, UniProt P30542); type: cell membranes, CHO, Membrane; conditions: cho;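 note: radioligand binding assay at the adenosine A1 receptor, with DPCPX serving as the labelled ligand; in other assays of this panel Not Active means under 50% inhibition at 10 µM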
T2 sequence (P30542 whole entry): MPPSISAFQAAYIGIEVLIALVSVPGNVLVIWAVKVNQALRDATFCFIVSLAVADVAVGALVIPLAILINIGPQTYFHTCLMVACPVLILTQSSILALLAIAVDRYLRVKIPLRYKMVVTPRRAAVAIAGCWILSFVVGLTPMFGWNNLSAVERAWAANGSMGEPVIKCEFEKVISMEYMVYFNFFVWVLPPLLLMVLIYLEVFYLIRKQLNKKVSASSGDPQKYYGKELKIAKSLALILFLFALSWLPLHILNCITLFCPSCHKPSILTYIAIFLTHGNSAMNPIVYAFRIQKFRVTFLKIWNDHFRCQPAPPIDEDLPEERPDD

Adenosine receptor A3 = molecular target: T3, Adenosine receptor A3 (Homo sapiens, UniProt P0DMS8); type: cell membranes, CHO-K1, Membrane; conditions: cho-k1;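 note: radioligand binding assay with AB-MECA serving as the labeled ligand; in other assays of this panel Not Active means under 50% inhibition at 10 µM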
T3 sequence (P0DMS8 whole entry): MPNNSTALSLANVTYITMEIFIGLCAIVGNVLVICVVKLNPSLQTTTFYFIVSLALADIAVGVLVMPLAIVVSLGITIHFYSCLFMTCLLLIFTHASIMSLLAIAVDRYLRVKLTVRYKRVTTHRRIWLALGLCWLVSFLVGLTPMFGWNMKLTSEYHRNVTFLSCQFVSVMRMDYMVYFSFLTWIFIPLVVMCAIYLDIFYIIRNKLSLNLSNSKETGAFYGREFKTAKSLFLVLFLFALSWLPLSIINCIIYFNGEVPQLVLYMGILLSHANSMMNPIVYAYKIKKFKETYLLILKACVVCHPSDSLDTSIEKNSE

Row | Structure (SMILES) | IC50 [1] | IC50 [2] | Ki [2] | IC50 [3] | Ki [3] | IC50 [4] | Ki [4] | IC50 [5] | Ki [5] | IC50 (Adenosine receptor A1) | IC50 (Adenosine receptor A3) | IC50 ([2]; read-out: IC50) | Ki ([2]; read-out: Ki)
1 | CCCCN1CCCC[C@H]1C(=O)Nc1c(C)cccc1C [LEVOBUPIVACAINE] | Not Active | Not Active | Not Active | Not Active | Not Active | Not Active | Not Active | Not Active | Not Active | Not Active | Not Active | – | –
2 | CC(C)C(=O)Nc1ccc([N+](=O)[O-])c(C(F)(F)F)c1 [FLUTAMIDE] | Not Active | Not Active | Not Active | Not Active | Not Active | Not Active | Not Active | Not Active | Not Active | Not Active | Not Active | – | –
3 | CC(C)[C@H]1C(=O)N2CCC[C@H]2[C@]2(O)O[C@](NC(=O)[C@@H]3C=C4c5cccc6[nH]cc(c56)C[C@H]4N(C)C3)(C(C)C)C(=O)N12 [ERGOCORNINE] | Not Active | Not Active | Not Active | Not Active | Not Active | Not Active | Not Active | Not Active | Not Active | Not Active | Not Active | – | –
4 | CC(C)(Oc1ccc(Cl)cc1)C(=O)O [CLOFIBRIC ACID] | Not Active | Not Active | Not Active | Not Active | Not Active | Not Active | Not Active | Not Active | Not Active | Not Active | Not Active | – | –
5 | CCCC1O[C@@H]2C[C@H]3[C@@H]4CCC5=CC(=O)C=C[C@]5(C)[C@H]4[C@@H](O)C[C@]3(C)[C@]2(C(=O)CO)O1 (some centres undefined) [BUDESONIDE] | Not Active | Not Active | Not Active | Not Active | Not Active | Not Active | Not Active | Not Active | Not Active | Not Active | Not Active | – | –
6 | O=C(CCCN1CC=C(n2c(=O)[nH]c3ccccc32)CC1)c1ccc(F)cc1 [DROPERIDOL] | Not Active | – | – | Not Active | Not Active | Not Active | Not Active | Not Active | Not Active | Not Active | Not Active | 3280 nM | 2020 nM
7 | Clc1cccc(Cl)c1NC1=NCCN1 [CLONIDINE] | Not Active | Not Active | Not Active | Not Active | Not Active | Not Active | Not Active | Not Active | Not Active | Not Active | Not Active | – | –
8 | Cc1onc(O)c1CC(N)C(=O)O (racemic) [(R,S)-AMPA] | Not Active | Not Active | Not Active | Not Active | Not Active | Not Active | Not Active | Not Active | Not Active | Not Active | Not Active | – | –
9 | CCOC(=O)C1=C(COCCN)NC(C)=C(C(=O)OC)C1c1ccccc1Cl (centres undefined) [AMLODIPINE] | Not Active | Not Active | Not Active | Not Active | Not Active | Not Active | Not Active | Not Active | Not Active | Not Active | Not Active | – | –
